Assay results from US6083941A, “Inhibition of NMDA receptor activity by pregnenolone sulfate derivatives” (Trustees of Boston University, priority 1998, dated 2000).
Structures can show the parent of a compound that is named as a salt.

What was measured:
[1] = system: NMDA-induced seizure and death in mice; assay: NMDA-induced seizure and death (100 mg/kg NMDA challenge); format: in vivo; details: steroid 25 mg/kg i.p., DMSO 50%
Protocol: 5β3αHS (25 mg/kg, i.p.) protects mice from NMDA-induced death. None of the steroids tested altered the latency to NMDA-induced seizure. However, 100% of the animals that received 5β3αHS survived the 100 mg/kg NMDA challenge compared to 50% for DMSO, 75% for 5β3αS and E2 (3)HS, and 50% for E2 (17)HS.

[2] = system: NMDA-induced cell death in primary neuronal cultures of rat hippocampal formation; assay: Trypan blue exclusion, NMDA-induced cell death (excitotoxicity) in primary hippocampal cultures; format: cell-based
Source text: Trypan blue exclusion was used to evaluate the ability of derivatives of pregnenolone sulfate to inhibit NMDA-induced cell death in primary neuronal cultures of rat hippocampal formation.
Mixed neuronal and glial cultures of hippocampal tissue were derived from fetal rats on day 18 of embryonic development and were maintained in culture for 16 to 24 days (Brewer, G. J., Brain Res., 494: 65-74 (1989)). Care for the animals used in this study was in accordance with institutional guidelines. Hippocampal tissue from Sprague-Dawley rat pups was collected immediately following removal from dams sacrificed with CO2 on embryonic day 18. Cells were dissociated by trituration in Ca^2 +/Mg^2 + free Hank's basic salt solution supplemented with 4.2 mM bicarbonate, 1 mM sodium pyruvate, 20 mM HEPES, 3 mg/ml BSA, and pelleted by centrifugation (900 rpm, 3 min). The resulting pellet was suspended in DMEM supplemented with 2.4 mg/ml BSA, 26.5 mM sodium bicarbonate, 1 mM sodium pyruvate, 20 mM HEPES, 10% FBS, 100 units/ml penicillin, 100 μg/ml streptomycin, and a modification of Brewers B16 defined components (with […] vitamin B12 and without catalase, glutathione, and superoxide dismutase) (Pike, C. J., et al., Neurosci. 13:1676-87 (1993)) and plated onto poly-L-lysine coated 24 well culture dishes (Nunclon) at a density of 15,000 cells/cm^2 and were maintained in a humidified incubator in 5% CO2 /95% air at 37° C. After 5 days in vitro, nonneuronal cell division was inhibited by exposure to 2×10^-6 M cytosine arabinoside for 48 hrs. Cells were subsequently maintained in medium identical to that used for platting without BSA or FBS.
The number of living neurons was determined by assessing the ability of cells to exclude trypan blue 16 hrs. after the addition of drug solutions to the medium of individual culture wells (Dawson, V. L., et al., Proc. Natl. Acad. Sci. USA, 88:6368-6371 (1991)). Drugs were introduced to cultures in 100 μl of conditioned media, collected from experimental cultures just prior to treatment, to a final volume of 0.5 ml. NMDA was dissolved in DMEM at concentrations of 0-5 mM so that addition of 10 μl yielded final concentrations of 0-100 μM. MK-801, a positive control, was dissolved in DMEM at a concentration of 1 mM so that addition of 5 μl yielded a final concentration of 10 μM. Control cultures were exposed only to an equivalent volume of DMEM, and concentration of DMSO (0.5%). The concentrations of the pregnenolone sulfate derivatives were as follows: 10-100 μM 5β3αS, 100 μM 5β3α hemisuccinate and 200 μM 17β-estradiol hemisuccinate.
After exposure to drugs, the medium was replaced by 0.1 M sodium phosphate buffer/0.4% trypan blue. Cell death was assessed by counting the number of trypan blue positive and negative neurons in five high power fields per culture well with an inverted phase contrast microscope using both bright field and phase settings. Cell death is expressed as the ratio of the number of trypan blue positive to total number of cells counted in each well×100 (percent cell death).

CC(=O)[C@H]1CC[C@H]2[C@@H]3CC[C@@H]4C[C@H](OC(=O)CCC(=O)O)CC[C@]4(C)[C@H]3CC[C@]12C [5β3αHS, 3α-hydroxy-5β-pregnan-20-one hemisuccinate]
animals that survived the 100 mg/kg NMDA challenge [1]: 100%
inhibition of the cell death induced by chronic NMDA ([2]; 100 μM 5β3α hemisuccinate): 50%
inhibition of the cell death produced by short term exposure to NMDA ([2]; 100 μM 5β3α hemisuccinate): 46%

CC(=O)[C@H]1CC[C@H]2[C@@H]3CC[C@@H]4C[C@H](OS(=O)(=O)O)CC[C@]4(C)[C@H]3CC[C@]12C [5β3αS, 3α-hydroxy-5β-pregnan-20-one sulfate]
animals that survived the 100 mg/kg NMDA challenge [1]: 75%
protection against chronic NMDA-induced cell death ([2]; 10-100 μM 5β3αS, FIG. 5): ineffective against chronic NMDA-induced cell death
protection against short term NMDA excitotoxicity ([2]; 10-100 μM 5β3αS, FIG. 5): protects against short term NMDA excitotoxicity
block of cell death due to NMDA ([2]; steroid present during the exposure only): completely blocked the cell death
block of cell death due to NMDA ([2]; steroid present only after the exposure): considerably less effective
